Test results from US20260242419A1, “A CYCLIC PEPTIDE FOR TRAPPING INTERLEUKIN-1 BETA” (Merck Sharp & Dohme LLC, priority 2023, published 2026).
Where two headings read alike, the source gives them in different places. Starred links: 1 amine or outer side, 2 acyl side, 3 side chain; linkers in the order of their positions; H or OH if unused. Non-standard residues stand in square brackets, D forms with d. Residues, ends and D or L forms follow the SMILES beside them. dPro(4R-(4-pyridylmethyl)) = O=C(O)[C@H]1C[C@@H](Cc2ccncc2)CN1; Ala(piperidin-4-yl) = O=C([C@H](CC1CCN([*:3])CC1)N[*:1])[*:2]; dPro(3S-(4-Br-benzyl)) = O=C(O)[C@@H]1NCC[C@@H]1Cc1ccc(Br)cc1; Trp(βS-Me,4-F) = C[C@@H](c1c[nH]c2cccc(F)c12)[C@H](N)C(=O)O; Bip(4'-COOH) = N[C@@H](Cc1ccc(-c2ccc(C(=O)O)cc2)cc1)C(=O)O; Ala(1-bicyclo(1.1.1)pentyl) = N[C@@H](CC12CC(C1)C2)C(=O)O; 1Nal(3S-Me) = C[C@@H](c1cccc2ccccc12)[C@H](N)C(=O)O; X4 = O=C([C@H]1[C@@H](Cc2ccncc2)CCN1[*:1])[*:2]; Ala(pyrimidin-5-yl) = N[C@@H](Cc1cncnc1)C(=O)O; Phe(4-COOH) = N[C@@H](Cc1ccc(C(=O)O)cc1)C(=O)O; Pro(cis-4-F) = O=C(O)[C@@H]1C[C@H](F)CN1; AEF = NCCOc1ccc(C[C@H](N)C(=O)O)cc1; d(αMeD) = C[C@@](N)(CC(=O)O)C(=O)O; 4Pal = N[C@@H](Cc1ccncc1)C(=O)O; aThr = C[C@H](O)[C@H](N)C(=O)O; dCha = N[C@H](CC1CCCCC1)C(=O)O; d(αMeS) = C[C@@](N)(CO)C(=O)O; Dab = NCC[C@H](N)C(=O)O; Aib = CC(C)(N)C(=O)O

Molecular target: T1, IL-1β (Homo sapiens, UniProt P01584)
T1 construct: purchased BioLegend 579404
Experiment: IL-6 assay in MRC5 cells: inhibition of IL-1β induced IL-6 secretion (AlphaLISA)
Type: cell-based
Conditions: inhibition of IL-1β induced IL-6 secretion in MRC5 cells, read-out: MRC5 IC50
Experimental: Procedure for IL-6 Assay in MRC5 Cells
The inhibition of IL-1β induced IL-6 secretion was evaluated in MRC5 cells. Recombinant human IL-1β (BioLegend 579404) at 2λ EC80 concentration was prepared in seeding medium. EMEM (ATCC 30-2003) with 0.025% BSA (Sigma A9576), 1×penicillin/streptomycin (Gibco 15070-063), 1×NEAA (Gibco 11140-050), 1×GlutaMax (Gibco 35050-061), and 1×sodium pyruvate (Gibco 11360-070), 20 μL of IL-1β was added to a 384-well collagen-coated plate (Corning 354664) and pre-incubated at ambient temperature for 1 hour with 200 nL of compound dispensed using an ECHO 555 liquid handler. Human lung fibroblast MRC5 cells (ATCC CCL-171) were added at a density of 3000 cells/20 μL per well. The cells were prepared by passaging three times in growth medium, EMEM (ATCC 30-2003) with 10% fetal bovine serum (Gibco 16140-071), 1×penicillin/streptomycin (Gibco 15070-063), 1×NEAA (Gibco 11140-050), 1×GlutaMax (Gibco 35050-061), and 1×sodium pyruvate (Gibco 11360-070) in collagen-coated T175 flasks (Greiner 661950) and harvested in seeding medium after 5 minutes of 0.25% trypsin-EDTA (Gibco 25200-056) digestion. The 384-well collagen-coated plate, containing a final volume of 40 μL, was incubated at 37° C., 5% CO2 overnight. 5 μL of the conditioned medium was transferred to a 384-well AlphaLISA plate (PerkinElmer 6005350) for detection of IL-6 using the human AlphaLISA IL-6 kit (PerkinElmer AL223F) as per the manufacturer's protocol. 20 μL of the acceptor bead/biotinylated antibody mix was added to the 384-well AlphaLISA plate and incubated for 1 hour at ambient temperature. The donor bead mix was protected from light and 25 μL was added to the plate and incubated for 30 minutes at ambient temperature. The AlphaLISA plate was read on an EnVision multimode plate reader (Perkin Elmer model 2104) using the AlphaScreen setting (laser exc at 680 nm and emis at […]). Dose response curves and IC50 values were analyzed using a 4-parameter logistic equation in Spotfire software (Tibco, Palo Alto, CA).

T1 sequence (P01584 117-269): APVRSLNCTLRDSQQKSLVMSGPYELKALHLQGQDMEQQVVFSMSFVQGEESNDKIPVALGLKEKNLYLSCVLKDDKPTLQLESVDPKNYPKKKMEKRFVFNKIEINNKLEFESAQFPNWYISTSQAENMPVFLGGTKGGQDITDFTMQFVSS

Compound | IC50 [nM] | IC50 (compound pre-incubated 1 hour with recombinant human IL-1β) [nM]
C[C@@H](c1c[nH]c2cccc(F)c12)[C@@H]1NC(=O)[C@@H]2C[C@H](F)CN2C(=O)CNC(=O)[C@H](Cc2ccc(C(=O)O)cc2)NC(=O)[C@H](CC23CC(C2)C3)NC(=O)[C@H](Cc2ccc(-c3ccc(C(=O)O)cc3)cc2)NC(=O)[C@H]2C[C@@H](Cc3ccncc3)CN2C(=O)CNC(=O)[C@H](CO)NC(=O)[C@H](CCC(N)=O)NC(=O)[C@H](CC2CCNCC2)NC(=O)[C@@](C)(CO)NC(=O)[C@H](Cc2c[nH]c3ccccc23)NC(=O)[C@H](CCC(=O)O)NC(=O)C(C)(C)NC1=O [Example 178] (cyclo([Bip(4'-COOH)][Ala(1-bicyclo(1.1.1)pentyl)][Phe(4-COOH)]G[Pro(cis-4-F)][Trp(βS-Me,4-F)][Aib]EW[d(αMeS)][Ala(piperidin-4-yl)]QSG[dPro(4R-(4-pyridylmethyl))])) | 0.041 | –
C[C@@H](c1cccc2ccccc12)[C@@H]1NC(=O)[C@@H]2C[C@H](F)CN2C(=O)CNC(=O)[C@H](Cc2ccc(C(=O)O)cc2)NC(=O)[C@H](Cc2ccncc2)NC(=O)[C@H](Cc2ccc(-c3ccc(C(=O)O)cc3)cc2)NC(=O)[C@H]2[C@@H](Cc3ccc(Br)cc3)CCN2C(=O)CNC(=O)[C@H](CCN)NC(=O)[C@H](CCC(N)=O)NC(=O)[C@H](Cc2cncnc2)NC(=O)C(C)(C)NC(=O)[C@H](Cc2c[nH]c3ccccc23)NC(=O)[C@H](CCC(=O)O)NC(=O)C(C)(C)NC1=O [Example 153] (cyclo([Bip(4'-COOH)][4Pal][Phe(4-COOH)]G[Pro(cis-4-F)][1Nal(3S-Me)][Aib]EW[Aib][Ala(pyrimidin-5-yl)]Q[Dab]G[dPro(3S-(4-Br-benzyl))])) | 0.019 | –
C[C@H](O)[C@@H]1NC(=O)[C@@](C)(CC(=O)O)NC(=O)[C@H](Cc2c[nH]c3ccccc23)NC(=O)[C@H](CO)NC(=O)C(C)(C)NC(=O)[C@H]([C@@H](C)c2cccc3ccccc23)NC(=O)[C@@H]2C[C@H](F)CN2C(=O)CNC(=O)[C@H](Cc2ccc(C(=O)O)cc2)NC(=O)[C@H](Cc2ccncc2)NC(=O)[C@H](Cc2ccc(-c3ccc(C(=O)O)cc3)cc2)NC(=O)[C@H]2C[C@@H](Cc3ccncc3)CN2C(=O)CNC(=O)[C@H](CCN)NC(=O)[C@H](CCC(N)=O)NC1=O [Example 357] (cyclo([Bip(4'-COOH)][4Pal][Phe(4-COOH)]G[Pro(cis-4-F)][1Nal(3S-Me)][Aib]SW[d(αMeD)][aThr]Q[Dab]G[dPro(4R-(4-pyridylmethyl))])) | 0.017 | –
CC(=O)NCCOc1ccc(C[C@@H]2NC(=O)[C@H]3C[C@@H](Cc4ccncc4)CN3C(=O)CNC(=O)[C@H](CCN)NC(=O)[C@H](CCC(N)=O)NC(=O)[C@H](Cc3c[nH]cn3)NC(=O)C(C)(C)NC(=O)[C@H](Cc3c[nH]c4ccccc34)NC(=O)[C@H](CCC(=O)O)NC(=O)C(C)(C)NC(=O)[C@H]([C@@H](C)c3c[nH]c4cccc(F)c34)NC(=O)[C@@H]3C[C@H](F)CN3C(=O)CNC(=O)[C@H](Cc3ccc(C(=O)O)cc3)NC(=O)[C@H](Cc3ccncc3)NC2=O)cc1 [Example 317] (cyclo([AEF](Ac)[4Pal][Phe(4-COOH)]G[Pro(cis-4-F)][Trp(βS-Me,4-F)][Aib]EW[Aib]HQ[Dab]G[dPro(4R-(4-pyridylmethyl))])) | 0.015 | –
C[C@@H](c1c[nH]c2cccc(F)c12)[C@@H]1NC(=O)[C@@H]2C[C@H](F)CN2C(=O)CNC(=O)[C@H](Cc2ccc(C(=O)O)cc2)NC(=O)[C@H](Cc2ccncc2)NC(=O)[C@H](Cc2ccc(-c3ccc(C(=O)O)cc3)cc2)NC(=O)[C@H]2[C@@H](Cc3ccncc3)CCN2C(=O)CNC(=O)[C@H](CCN)NC(=O)[C@H](CCC(N)=O)NC(=O)[C@@H](CC2CCCCC2)NC(=O)[C@@](C)(CC(=O)O)NC(=O)[C@H](Cc2c[nH]c3ccccc23)NC(=O)[C@H](CO)NC(=O)C(C)(C)NC1=O [Example 237] (cyclo([Bip(4'-COOH)][4Pal][Phe(4-COOH)]G[Pro(cis-4-F)][Trp(βS-Me,4-F)][Aib]SW[d(αMeD)][dCha]Q[Dab]G[X4])) | – | 0.025
